What all share (test): DTP human tumour cell line panel, 48 h
In assay [1] the test system is A498.
For assay [2], the system named is BT-549.
The test system of assay [3] is CCRF-CEM.
In assay [4] the test system is COLO 205.
In assay [5] the test system is HCT-116.
Assay [6] deals with HCT-15.
The subject of assay [7] is HOP-62.
The test system of assay [8] is HOP-92.
For assay [9], the system named is IGROV-1.
Assay [10] relates to LOX IMVI.
In assay [11] the test system is MDA-MB-435.
The test system of assay [12] is Malme-3M.
For assay [13], the system named is NCI-H23.
The test system of assay [14] is OVCAR-4.
Assay [15] relates to OVCAR-5.
Assay [16] concerns PC-3.
Assay [17] relates to SF-295.
The subject of assay [18] is SK-MEL-2.
Assay [19] has as its system SW-620.
Assay [20] relates to UACC-257.

Each structure is given as a SMILES string.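 Compound exposure: 48 hours, 5 concentrations, 96-well plates. GI50 is the concentration that inhibits growth by half.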 Active and inactive are the calls of the source. No stated cut-off is given here; in the data, active = GI50 up to about 1.1 µM and inactive = higher.

On to `O=c1c2ccccc2sc2nc(CCl)nn12`, for which the GI50 was 2.64 µM (inactive) in assay [1]; 27 µM (inactive) in [2]; > 100 µM (inactive) in [3]; 13.1 µM (inactive) in assay [4]; 4.75 µM (inactive) in assay [5]; 4.6 µM in [6]. The GI50 in assay [7] was > 100 µM (inactive); in assay [8], 3.62 µM (inactive); in assay [9], 17.2 µM (inactive); in assay [10], > 100 µM (inactive); in assay [11] it was 8.28 µM (inactive); in assay [12], 18.5 µM (inactive). The GI50 was 7.59 µM (inactive) in [13]; > 100 µM (inactive) in [14]; 24 µM (inactive) in assay [15]; 3.42 µM (inactive) in [16]; 43.1 µM (inactive) in assay [17]; 48.4 µM (inactive) in assay [18]. For the same compound, the GI50 in assay [19] is 12.7 µM (inactive); in [20] it was 14 µM (inactive).

In the case of `C=C(C)[C@@H]1CCC2=C[C@H](OC2=O)[C@@]2(C)C[C@@H]2C(=O)/C=C(/C)C(=O)[C@H]1OC(C)=O`, the GI50 in assay [1] was 23.2 µM (inactive); in assay [2], 11.4 µM (inactive); in assay [3], 5.02 µM (inactive); in assay [4], 18.3 µM (inactive); in assay [5], 5.74 µM (inactive); in assay [6] it was 12.7 µM. The GI50 is 34.6 µM (inactive) in assay [7]; 41.2 µM (inactive) in [8]; 14.1 µM (inactive) in [9]; 7.78 µM (inactive) in assay [10]; 13.2 µM (inactive) in [11]; 12.1 µM (inactive) in assay [12]. Further, the GI50 in assay [13] was 11.6 µM (inactive); in assay [14], 13 µM (inactive); in assay [15], 15.5 µM (inactive); in assay [16], 13 µM (inactive); in [17] it was 42.6 µM (inactive); in [18], 26.3 µM (inactive). In addition, the GI50 is 14 µM (inactive) in assay [19] and 21.1 µM (inactive) in [20].

Regarding `O=C1CCCC2C3CC(CN12)C1CCCCN1C3.[O-][Cl+3]([O-])([O-])O` (stereo not given), the GI50 in assay [1] is > 100 µM (inactive); in assay [2], > 100 µM (inactive); in assay [3], > 100 µM (inactive); in assay [4], > 100 µM (inactive); in [5], > 100 µM (inactive); in [6], more than 100 µM. The GI50 in [7], in [8], in assay [9], in assay [10], in assay [11] and in assay [12] was > 100 µM (inactive) each time. Besides, the GI50 in assay [13], in assay [14], in assay [15], in assay [16], in [17] and in assay [18] was > 100 µM (inactive) in each case. In addition, the GI50 in assay [19] and in assay [20] was > 100 µM (inactive) throughout.

`COc1cccc2c1C(=O)c1c(O)c3c(c(O)c1C2=O)C[C@@](O)(C(C)=O)C[C@@H]3OC1CC(N(C)C)C(O)C(C)O1` (stereo not given in full): the GI50 in [1] was 0.00464 µM (active); in assay [2], 0.00114 µM (active); in [3] it was 0.00412 µM (active); in [4], 0.00428 µM (active); in assay [5] it was 0.00169 µM (active); in [6] it was 0.00389 µM. For the same compound, the GI50 in assay [7] was 0.00344 µM (active); in assay [8] it was 0.084 µM (active); in assay [9] it was 0.00447 µM (active); in [10], 0.00223 µM (active); in [11] it was 0.000489 µM (active); in [12], 0.0405 µM (active). Also, the GI50 in assay [13] is 0.00508 µM (active); in [14], 0.0306 µM (active); in [15], 0.00577 µM (active); in assay [16] it was 0.000206 µM (active); in [17] it was 0.00425 µM (active); in [18], 0.0798 µM (active). In addition, the GI50 in assay [19] was 0.00348 µM (active); in assay [20] it was 0.00555 µM (active).

As for `CN(/N=C/c1ccc(Cl)c(Cl)c1)C1=NCCCCN1`, the GI50 was 18.2 µM (inactive) in assay [1]; 31 µM (inactive) in [2]; 31 µM (inactive) in assay [3]; 16.7 µM (inactive) in [4]; 24.4 µM (inactive) in [5]; 26.2 µM in [6]. Also, the GI50 in assay [7] is 16.7 µM (inactive); in assay [8], 18.9 µM (inactive); in assay [9] it was 52.6 µM (inactive); in [10] it was 13.2 µM (inactive); in assay [11], 16.3 µM (inactive); in assay [12], 17.8 µM (inactive). In addition, the GI50 in assay [13] was 55.5 µM (inactive); in assay [14] it was 44.1 µM (inactive); in assay [15], 27.9 µM (inactive); in assay [16], 25.3 µM (inactive); in assay [17], 34.4 µM (inactive); in assay [18], 20.1 µM (inactive). Further, the GI50 in assay [19] is 15.6 µM (inactive); in assay [20], 22.6 µM (inactive).

Regarding `C=C1C(=O)O[C@H]2C[C@@H]1C(=O)CC(C)CCCC(C)=CCC[C@@]2(C)O` (stereo not given in full), the GI50 in assay [1] is > 25 µM (inactive); in assay [2], > 25 µM (inactive); in assay [3], > 25 µM (inactive); in [4] it was > 25 µM (inactive); in assay [5], > 25 µM (inactive); in assay [6], more than 25 µM. The GI50 in assay [7], in assay [8], in assay [9], in assay [10], in assay [11] and in assay [12] was > 25 µM (inactive) in each case. The GI50 in assay [13], in assay [14], in [15], in assay [16], in [17] and in [18] was > 25 µM (inactive) throughout. The GI50 in assay [19] and in [20] was > 25 µM (inactive) each time.

For the compound `CCOC(=O)C(NC(=O)c1cccc(Cl)c1)(N1CCN(c2cc3c(cc2F)c(=O)c(C(=O)O)cn3CC)CC1)C(F)(F)F` (stereo not given), the GI50 is 20.7 µM (inactive) in [1]; 19.4 µM (inactive) in assay [2]; 2.61 µM (inactive) in assay [3]; 18.1 µM (inactive) in assay [4]; 14 µM (inactive) in [5]; 17.6 µM in assay [6]. Moreover, the GI50 in [7] is 20.5 µM (inactive); in assay [8], 13.8 µM (inactive); in assay [9], 18.3 µM (inactive); in [10], 17.7 µM (inactive); in [11] it was 14.5 µM (inactive); in assay [12], 18.2 µM (inactive). The GI50 is 18 µM (inactive) in assay [13]; 18.6 µM (inactive) in [14]; 17.4 µM (inactive) in assay [15]; 13.4 µM (inactive) in assay [16]; 18.7 µM (inactive) in assay [17]; 13.5 µM (inactive) in assay [18]. The values for the GI50 in assay [19] and in [20] were 12.9 µM (inactive) and 27.4 µM (inactive), respectively.

These data come from ChEMBL document CHEMBL1201862, “PubChem BioAssay data set” (2004).
